The source of these data is patent US20060287248A1, “Asymmetric dosing methods” (Schering Corporation, priority 2005, published 2006).

Each structure is given as a SMILES string.

The test system of series [1] is melanoma A375 tumors. The following applies: melanoma A375 tumors implanted into the left ventricle of the heart; cited from earlier work.
Series [2] can be described thus: Serum levels of compound Ia on day 14 in healthy subjects, BID vs TID regimen (FIG. 2). It counts as in vivo, human. The following applies: 400 mg TID; for serum/plasma level before the morning dose (time zero), 8 hours after the previous dose: healthy subjects, compared with 8 hours after the morning dose.
Method: Healthy subjects were put on one of two regimens of 400 mg BID or 400 mg. TID of a compound of Formula Ia. Blood samples were taken on day 14 immediately prior to the morning dose (time zero) and at 12 hours post-dose (for the BID regimen) or 8 hours post-dose (for the TID regimen).
Series [3] concerns HCV. In words: Viral load in HCV patients on regimens of compound of Formula Ia (reverse transcriptase PCR, FIG. 1). As to conditions: Patients with HCV, 200 mg BID, 400 mg BID, 400 mg TID. It is filed as in vivo, human. An excerpt: FIG. 1 is a graph of mean viral load measured over time with administration of various doses and regimens of compound of Formula Ia; and
Studies of viral activity in HCV infected patients indicate that viral activity and resulting viral load are influenced by the circadian rhythm of the patient. […] Thus, in one aspect of the invention, the one or more discrete dosages are adjusted in amount to provide a highest dose or doses at a time or times corresponding to the time interval when hepatitis-C virus replication is highest.
Patients with HCV were put on various treatment regimens including 200 mg. BID, 400 mg. BID, and 400 mg. TID of a compound of Formula Ia, to determine efficacy of the regimens in reducing viral load. Blood samples were taken at predose and at 0.25, 0.5, 0.75, 1, 1.5, 2, 3, 4, 5, 6, 8, 10, 12, 18, 24, 36, 48, 72, 144 hr post dose using reverse transcriptase PCR methods.

For the compound `CN(C)C(=O)[C@H](Cc1ccccc1)NC(=O)[C@H]1O[C@@H]1C(=O)NCCc1ccccn1` [CLIK-148], the “distant bone metastasis to the femur and tibia” value in series [1] is “reduced distant bone metastasis”.
Consider `CC(C)(C)NC(=O)N[C@H](C(=O)N1C[C@H]2[C@@H]([C@H]1C(=O)NC(CC1CCC1)C(=O)C(N)=O)C2(C)C)C(C)(C)C` (stereo partly drawn) [Formula Ia, (1R,5S)-N-[3-Amino-1-(Cyclobutylmethyl)-2,3-Dioxopropyl]-3-[2(S)-[[[(1,1-Dimethylethyl)Amino]Carbonyl]Amino]-3,3-Dimethyl-1-Oxobutyl]-6,6-Dimethyl-3-Azabicyclo[3.1.0]Hexan-2(S)-Carboxamide], for which, in series [2] (compared with level before the morning dose), the “plasma level 8 hours after the morning dose” value is on record as “much lower”. In addition, the “serum/plasma level before the morning dose (time zero), 8 hours after the previous dose” value in series [2] is recorded as “significantly higher at time zero”; in series [2] (listed as formula la) it was “highest in the morning”. The “pattern of viral load decline over time” value in series [3] is “exhibited cyclical fluctuations corresponding to the patients' sleep/wake cycles”; in series [3] (listed as Formula la), “the decline in viral load is cyclical”. The “viral load as measured in serum” value in series [3] (predose to 144 hr post dose) was “declined with all regimens”.
